Assay results as given in publication PMC4904246 (Journal of Medicinal Chemistry, 2016).
≈ marks a conversion by molar mass, not a printed value. Read-outs that look alike come from different tables or passages of the source. Marks after values point to notes of the source that are not given here. Values belong to the molecule of their own block, whether it stands above or below them.

What was measured:
[1] = kinetic aqueous solubility by nephelometry; format: physicochemical; conditions: pH 6.5 phosphate buffer, pH 6.5
[2] = in vitro metabolism, human liver microsomes; format: in vitro ADME; conditions: human, pooled human liver microsomes
hDHODH [3] = molecular target: T1, hDHODH (Homo sapiens, UniProt Q02127)
T1 sequence (Q02127 31-395 limits assumed): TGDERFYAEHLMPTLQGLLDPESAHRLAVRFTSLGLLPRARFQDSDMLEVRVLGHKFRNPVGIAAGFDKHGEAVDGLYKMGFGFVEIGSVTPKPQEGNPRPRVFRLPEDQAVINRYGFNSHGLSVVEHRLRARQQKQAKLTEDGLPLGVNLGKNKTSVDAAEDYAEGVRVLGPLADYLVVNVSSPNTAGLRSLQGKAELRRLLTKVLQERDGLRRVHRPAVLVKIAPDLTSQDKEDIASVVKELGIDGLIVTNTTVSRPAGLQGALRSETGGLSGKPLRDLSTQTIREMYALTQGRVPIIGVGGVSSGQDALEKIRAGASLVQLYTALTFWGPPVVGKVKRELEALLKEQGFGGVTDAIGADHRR

[4] = plasma protein binding by ultracentrifugation, rat plasma; format: in vitro ADME
[5] = plasma protein binding by ultracentrifugation, mouse plasma; format: in vitro ADME; conditions: for mouse PPB (% bound): approximation based on rat and human plasma protein binding data; for PPB mouse (% bound): mouse plasma, ultracentrifugation
hDHODH [6] = molecular target: T1, hDHODH; assay: biochemical
[7] = plasma protein binding by ultracentrifugation, human plasma; format: in vitro ADME
PvDHODH [8] = molecular target: T2, PvDHODH (Plasmodium vivax, UniProt A5K1N1); conditions: PvDHODH IC50 higher than PfDHODH IC50
T2 sequence (A5K1N1 160-572): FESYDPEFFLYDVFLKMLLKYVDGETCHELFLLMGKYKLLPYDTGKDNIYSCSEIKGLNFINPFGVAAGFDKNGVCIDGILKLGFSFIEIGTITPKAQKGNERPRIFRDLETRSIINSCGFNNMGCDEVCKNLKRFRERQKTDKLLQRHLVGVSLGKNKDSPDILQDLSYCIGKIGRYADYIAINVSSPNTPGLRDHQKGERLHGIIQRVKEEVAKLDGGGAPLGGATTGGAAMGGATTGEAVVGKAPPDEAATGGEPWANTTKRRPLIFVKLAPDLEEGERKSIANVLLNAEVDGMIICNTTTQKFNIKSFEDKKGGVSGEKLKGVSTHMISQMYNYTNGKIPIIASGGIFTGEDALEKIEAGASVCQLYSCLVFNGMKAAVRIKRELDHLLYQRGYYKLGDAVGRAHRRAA

in vivo = conditions: Sprague-Dawley, rat, plasma, iv
dog DHODH = dog DHODH (Canis lupus familiaris, UniProt A0A8I3MWX2); assay: biochemical
dog DHODH, sequence (A0A8I3MWX2 1-406): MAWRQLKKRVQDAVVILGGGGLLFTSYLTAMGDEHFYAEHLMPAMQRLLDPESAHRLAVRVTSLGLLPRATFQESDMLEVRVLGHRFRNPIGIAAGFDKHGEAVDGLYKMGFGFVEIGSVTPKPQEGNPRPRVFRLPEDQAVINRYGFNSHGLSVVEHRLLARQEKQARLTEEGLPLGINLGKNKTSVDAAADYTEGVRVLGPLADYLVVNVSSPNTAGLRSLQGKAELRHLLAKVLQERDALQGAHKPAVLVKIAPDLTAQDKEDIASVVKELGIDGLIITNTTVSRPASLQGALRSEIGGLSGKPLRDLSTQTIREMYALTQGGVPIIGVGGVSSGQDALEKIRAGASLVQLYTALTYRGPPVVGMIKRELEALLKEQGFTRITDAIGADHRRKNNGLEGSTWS

[9] = pH 6.5, 30 min at room temperature; cited from earlier work
PvDHODH [10] = molecular target: T2, PvDHODH; conditions: read-out: PvDHODH IC50; previous reports; 2 from 15, 3 from 16; cited from earlier work
[11] = scaled; cited from earlier work
[12] = test system: P. falciparum Pf3D7_0087/N9 parasites; conditions: for AUCED90: total blood AUC at the ED90, Day 1 pharmacokinetic data, QD, only two dose levels
[13] = approximate
hERG K+ channel = hERG K+ channel (Homo sapiens, UniProt Q12809); conditions: SCID study
hERG K+ channel, sequence (Q12809 whole entry): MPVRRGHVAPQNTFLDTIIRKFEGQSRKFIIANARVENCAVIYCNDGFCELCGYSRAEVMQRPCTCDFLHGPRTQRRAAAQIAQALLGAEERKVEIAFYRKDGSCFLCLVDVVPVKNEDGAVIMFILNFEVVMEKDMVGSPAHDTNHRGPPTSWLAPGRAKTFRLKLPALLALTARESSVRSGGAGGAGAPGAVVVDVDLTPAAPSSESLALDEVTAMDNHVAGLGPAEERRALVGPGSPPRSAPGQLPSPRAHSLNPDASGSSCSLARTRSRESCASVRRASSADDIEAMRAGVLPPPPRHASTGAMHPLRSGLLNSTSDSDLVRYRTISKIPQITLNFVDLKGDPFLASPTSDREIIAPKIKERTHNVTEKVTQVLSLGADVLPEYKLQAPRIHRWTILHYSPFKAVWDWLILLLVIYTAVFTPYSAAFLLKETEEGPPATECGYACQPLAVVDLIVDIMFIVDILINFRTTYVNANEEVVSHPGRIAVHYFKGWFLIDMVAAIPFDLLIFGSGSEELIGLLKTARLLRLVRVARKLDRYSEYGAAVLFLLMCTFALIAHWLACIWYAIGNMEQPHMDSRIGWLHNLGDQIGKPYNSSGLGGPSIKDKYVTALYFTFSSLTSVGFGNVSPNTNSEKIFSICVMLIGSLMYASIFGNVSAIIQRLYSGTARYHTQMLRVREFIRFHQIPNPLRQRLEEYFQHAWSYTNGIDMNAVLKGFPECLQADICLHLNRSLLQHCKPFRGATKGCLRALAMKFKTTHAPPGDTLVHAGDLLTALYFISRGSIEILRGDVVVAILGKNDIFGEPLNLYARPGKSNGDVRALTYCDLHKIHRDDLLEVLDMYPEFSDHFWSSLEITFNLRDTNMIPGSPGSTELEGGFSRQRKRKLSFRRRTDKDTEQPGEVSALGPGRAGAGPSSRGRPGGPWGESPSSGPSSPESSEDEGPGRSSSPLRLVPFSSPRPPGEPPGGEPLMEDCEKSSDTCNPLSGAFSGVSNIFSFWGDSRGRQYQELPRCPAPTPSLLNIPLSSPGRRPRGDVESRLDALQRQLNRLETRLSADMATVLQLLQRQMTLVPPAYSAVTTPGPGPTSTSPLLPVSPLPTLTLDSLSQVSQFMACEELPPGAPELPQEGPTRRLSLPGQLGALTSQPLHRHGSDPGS

P. falciparum 3D7 cells = conditions: read-out: EC50 Pf3D7 cells; previous reports; 2 from 15, 3 from 16; cited from earlier work
[14] = scaled; cited from earlier work; remark: listed apart in the source
hDHODH [15] = molecular target: T1, hDHODH; conditions: read-out: hDHODH IC50; previous reports; 2 from 15, 3 from 16; cited from earlier work

Structure (SMILES): Cc1cc(NC2CCc3ccc(Br)cc3C2)n2nc(C(C)(F)F)nc2n1 (stereo not shown) [Compound 14, 2-(1,1-Difluoroethyl)-N-(7-bromo-1,2,3,4-tetrahydronaphthalen-2-yl)-5-methyl-[1,2,4]triazolo[1,5-a]pyrimidin-7-amine]
IC50 (hDHODH [3]; read-out: hDHODH IC50): > 100 µM

Structure (SMILES): Cc1cc(NC2CCc3cc(Br)ccc3C2)n2nc(C(C)(F)F)nc2n1 (stereo not shown) [Compound 12, 2-(1,1-Difluoroethyl)-N-(6-bromo-1,2,3,4-tetrahydronaphthalen-2-yl)-5-methyl-[1,2,4]triazolo[1,5-a]pyrimidin-7-amine]
solubility kinetic at 30 min [1]: 3.1 to 6.3 µg/mL (≈ 7.34 to 14.9 µM) | CLint scaled at 1 μM [2]: < 5.8 mL/min/kg

Structure (SMILES): Cc1cc(NC2CCc3ccc(Br)cc3C2)n2nc(C(C)(F)F)nc2n1 (stereo not shown) [Compound 13, 2-(1,1-Difluoroethyl)-N-(7-bromo-1,2,3,4-tetrahydronaphthalen-2-yl)-5-methyl-[1,2,4]triazolo[1,5-a]pyrimidin-7-amine]
PPB rat (% bound) [4]: 97.2 % bound | mouse PPB (% bound) [5]: 97.2 ^c % bound | IC50 (hDHODH [6]): > 100 µM | PPB human (% bound) [7]: 96.3 % bound | difference of IC50 P. vivax DHODH versus PfDHODH (PvDHODH [8]): 1.5–3 fold | clearance (in vivo): 22.4 mL/min/kg | IC50 (dog DHODH): > 100 µM | solubility kinetic at 30 min [1]: 1.6 to 3.1 µg/mL (≈ 3.79 to 7.34 µM) | CLint scaled at 1 μM [2]: < 5.8 mL/min/kg | microsomal CLint at 1 μM [2]: < 7 µL/min/mg | IC50 (hDHODH [3]; read-out: DHODH IC50 human, Table 2, for 1 four independent replicates): > 100 µM

Structure (SMILES): Cc1cc(Nc2ccc(C(F)(F)F)cc2)n2ncnc2n1 [Compound 3, (5-methyl[1,2,4]triazolo[1,5-a]pyrimidin-7-yl)(4-trifluoromethylphenyl)amine]
kinetic solubility pH 6.5 [9]: 6.3–12.5 μg/mL | IC50 (PvDHODH [10]): 2.6 µM | predicted in vivo CLint human [11]: 6.2/ND/ND mL/min/kg

Structure (SMILES): Cc1cc(NC2Cc3cccc(C(F)(F)F)c3C2)n2nc(C(C)(F)F)nc2n1 (stereo not shown) [Compound 36, 2-(1,1-Difluoroethyl)-5-methyl-N-(4-(trifluoromethyl)-2,3-dihydro-1H-inden-2-yl)-[1,2,4]triazolo[1,5-a]pyrimidin-7-amine]
solubility kinetic at 30 min [1]: 6.3 to 12.5 µg/mL (≈ 15.9 to 31.5 µM) | CLint scaled at 1 μM [2]: 25 mL/min/kg

Structure (SMILES): Cc1cc(NC2Cc3c(C)ccc(C)c3C2)n2nc(C(C)(F)F)nc2n1 [Compound 32, N-(4,7-Dimethyl-2,3-dihydro-1H-inden-2-yl)-2-(1,1-difluoroethyl)-5-methyl-[1,2,4]triazolo[1,5-a]pyrimidin-7-amine]
solubility kinetic at 30 min [1]: 6.3 to 12.5 µg/mL (≈ 17.6 to 35 µM) | CLint scaled at 1 μM [2]: 138 mL/min/kg

Structure (SMILES): Cc1cc(NC2CCc3cc(Cl)ccc3C2)n2nc(C(C)(F)F)nc2n1 (stereo not shown) [Compound 7, 2-(1,1-Difluoroethyl)-N-(6-chloro-1,2,3,4-tetrahydronaphthalen-2-yl)-5-methyl-[1,2,4]triazolo[1,5-a]pyrimidin-7-amine]
PPB rat (% bound) [4]: 99.2 % bound | mouse PPB (% bound) [5]: 99.2 ^c % bound | PPB human (% bound) [7]: 98.8 % bound | AUCED90 [12]: >23 μM·h/day | difference of IC50 P. vivax DHODH versus PfDHODH (PvDHODH [8]): 5–8 fold | clearance (in vivo): 3.5 mL/min/kg | IC50 (dog DHODH): > 100 µM | solubility kinetic at 30 min [1]: 3.1 to 6.3 µg/mL (≈ 8.2 to 16.7 µM) | CLint scaled at 1 μM [2]: < 5.8 mL/min/kg

Structure (SMILES): Cc1cc(N[C@H]2CCc3ccc(Cl)cc3C2)n2nc(C(C)(F)F)nc2n1 [Compound 9, (S)-N-(7-Chloro-1,2,3,4-tetrahydronaphthalen-2-yl)-2-(1,1-difluoroethyl)-5-methyl-[1,2,4]triazolo[1,5-a]pyrimidin-7-amine]
PPB rat (% bound) [4]: 96.4 % bound | Cmax at the ED90 in the SCID study, unbound concentration [13]: approximately 0.05 μM | PPB mouse (% bound) [5]: 97.4 % bound | PPB human (% bound) [7]: 96.7 % bound | difference of IC50 P. vivax DHODH versus PfDHODH (PvDHODH [8]): 1.5–3 fold | unbound Cmax at the ED90 lower than the IC50 on the hERG channel (hERG K+ channel): ~30 fold | IC50 (dog DHODH): > 100 µM | solubility kinetic at 30 min [1]: 3.1 to 6.3 µg/mL (≈ 8.2 to 16.7 µM) | CLint scaled at 1 μM [2]: < 5.8 mL/min/kg

Structure (SMILES): Cc1cc(NC2Cc3ccccc3C2)n2nc(C(C)(F)F)nc2n1 [Compound 26, 2-(1,1-Difluoroethyl)-N-(2,3-dihydro-1H-inden-2-yl)-5-methyl[1,2,4]triazolo[1,5-a]pyrim-idin-7-amine]
solubility kinetic at 30 min [1]: 25 to 50 µg/mL (≈ 75.9 to 152 µM) | CLint scaled at 1 μM [2]: 20 mL/min/kg

Structure (SMILES): Cc1cc(NC2Cc3cccc(F)c3C2)n2nc(C(C)(F)F)nc2n1 (stereo not shown) [Compound 34, 2-(1,1-Difluoroethyl)-N-(4-fluoro-2,3-dihydro-1H-inden-2-yl)-5-methyl-[1,2,4]triazolo[1,5-a]pyrimidin-7-amine]
solubility kinetic at 30 min [1]: 12.5 to 25 µg/mL (≈ 36 to 72 µM) | CLint scaled at 1 μM [2]: 9.1 mL/min/kg

Structure (SMILES): Cc1cc(NC2Cc3cc(F)c(F)cc3C2)n2nc(C(C)(F)F)nc2n1 [Compound 35, N-(5,6-Difluoro-2,3-dihydro-1H-inden-2-yl)-2-(1,1-difluoroethyl)-5-methyl-[1,2,4]triazolo[1,5-a]pyrimidin-7-amine]
PPB rat (% bound) [4]: 94.2 % bound | PPB mouse (% bound) [5]: 95.3 % bound | PPB human (% bound) [7]: 93.4 % bound | ED90 ([12]; oral QD for 4 days): > 30 mg/kg | AUCED90 [12]: ∼137 μM·h/day | difference of IC50 P. vivax DHODH versus PfDHODH (PvDHODH [8]): 7 fold | IC50 (dog DHODH): > 100 µM | solubility kinetic at 30 min [1]: 6.3 to 12.5 µg/mL (≈ 17.2 to 34.2 µM) | CLint scaled at 1 μM [2]: < 5.8 mL/min/kg

Structure (SMILES): Cc1cc(Nc2ccc3ccccc3c2)n2ncnc2n1 [Compound 2, (5-methyl[1,2,4]triazolo[1,5-a]pyrimidin-7-yl)naphthalen-2-ylamine]
EC50 (P. falciparum 3D7 cells): 0.068 µM | predicted in vivo CLint mouse [14]: 591 mL/min/kg | kinetic solubility pH 6.5 [9]: 12.5–25 μg/mL | IC50 (PvDHODH [10]): 0.23 µM | IC50 (hDHODH [15]): > 100 µM | predicted in vivo CLint human [11]: 79 mL/min/kg

Structure (SMILES): Cc1cc(NC2Cc3c(F)ccc(F)c3C2)n2nc(C(C)(F)F)nc2n1 [Compound 33, N-(4,7-Difluoro-2,3-dihydro-1H-inden-2-yl)-2-(1,1-difluoroethyl)-5-methyl-[1,2,4]triazolo[1,5-a]pyrimidin-7-amine]
solubility kinetic at 30 min [1]: 6.3 to 12.5 µg/mL (≈ 17.2 to 34.2 µM) | CLint scaled at 1 μM [2]: 27 mL/min/kg

Further lines, results first:

solubility kinetic at 30 min [1]: 6.3 to 12.5 µg/mL (≈ 17.3 to 34.4 µM) | CLint scaled at 1 μM [2]: 8.2 mL/min/kg
Structure (SMILES): Cc1cc(NC2Cc3ccc(Cl)cc3C2)n2nc(C(C)(F)F)nc2n1 (stereo not shown) [Compound 28, N-(5-Chloro-2,3-dihydro-1H-inden-2-yl)-2-(1,1-difluoroethyl)-5-methyl-[1,2,4]triazolo[1,5-a]pyrimidin-7-amine]

solubility kinetic at 30 min [1]: 12.5 to 25 µg/mL (≈ 33.5 to 67 µM) | CLint scaled at 1 μM [2]: 15 mL/min/kg
Structure (SMILES): COc1ccc2c(c1)CC(Nc1cc(C)nc3nc(C(C)(F)F)nn13)CC2 (stereo not shown) [Compound 16, 2-(1,1-Difluoroethyl)-N-(7-methoxy-1,2,3,4-tetrahydronaphthal-en-2-yl)-5-methyl-[1,2,4]triazolo[1,5-a]pyrimidin-7-amine]

solubility kinetic at 30 min [1]: 1.6 to 3.1 µg/mL (≈ 4.19 to 8.12 µM) | CLint scaled at 1 μM [2]: 7.4 mL/min/kg
Structure (SMILES): Cc1cc(NC2CCc3ccc(Cl)cc3C2)n2nc(C(F)(F)F)nc2n1 (stereo not shown) [Compound 24, N-(7-Chloro-1,2,3,4-tetrahydronaphthalen-2-yl)-5-methyl-2-(trifluoromethyl)-[1,2,4]triazolo[1,5-a]pyrimidin-7-amine]

solubility kinetic at 30 min [1]: 6.3 to 12.5 µg/mL (≈ 17.4 to 34.6 µM) | CLint scaled at 1 μM [2]: 12 mL/min/kg
Structure (SMILES): Cc1cc(NC2CCc3cc(F)ccc3C2)n2nc(C(C)(F)F)nc2n1 (stereo not shown) [Compound 6, 2-(1,1-Difluoroethyl)-N-(6-fluoro-1,2,3,4-tetrahydronaphthalen-2-yl)-5-methyl-[1,2,4]triazolo[1,5-a]pyrimidin-7-amine]

solubility kinetic at 30 min [1]: 3.1 to 6.3 µg/mL (≈ 7.22 to 14.7 µM) | CLint scaled at 1 μM [2]: < 5.8 mL/min/kg
Structure (SMILES): Cc1cc(NC2CCc3cc(F)c(C(F)(F)F)cc3C2)n2nc(C(C)(F)F)nc2n1 (stereo not shown) [Compound 20, 2-(1,1-Difluoroethyl)-N-(6-fluoro-7-(trifluoromethyl)-1,2,3,4-tetrahydronaphthalen-2-yl)-5-methyl-[1,2,4]triazolo[1,5-a]pyrimidin-7-amine]

solubility kinetic at 30 min [1]: 1.6 to 3.1 µg/mL (≈ 3.73 to 7.22 µM) | CLint scaled at 1 μM [2]: < 5.8 mL/min/kg
Structure (SMILES): Cc1cc(NC2CCc3cc(C(F)(F)F)c(F)cc3C2)n2nc(C(C)(F)F)nc2n1 (stereo not shown) [Compound 21, 2-(1,1-Difluoroethyl)-N-(7-fluoro-6-(trifluoromethyl)-1,2,3,4-tetrahydro-naphthalen-2-yl)-5-methyl-[1,2,4]triazolo[1,5-a]pyrimidin-7-amine]

CLint scaled at 1 μM [2]: 9.1 mL/min/kg
Structure (SMILES): Cc1cc(NC2CCc3cc(F)c(F)cc3C2)n2nc(C(C)(F)F)nc2n1 (stereo not shown) [Compound 19, 2-(1,1-Difluoroethyl)-N-(6,7-difluoro-1,2,3,4-tetrahydronaphthalen-2-yl)-5-methyl-[1,2,4]triazolo[1,5-a]pyrimidin-7-amine]
